From PMC10694602, “Binding of perilipin 3 to membranes containing diacylglycerol is mediated by conserved residues within its PAT domain” (The Journal of Biological Chemistry, 2023)
Positions count from the first letter of the chain named. Where a name gives a salt, the structure may show the parent alone. Read-outs that look alike come from different tables or passages of the source.

How the values were obtained:
PLIN3 - S24A S93A = molecular target: T1, PLIN3 - S24A S93A (Homo sapiens, UniProt O60664, S24A/S93A); test: MST binding to the PLIN3 serine double mutant; settings: short chain lipid as free ligand
T1 construct: Plasmids containing human full-length PLIN3 or fragments thereof were obtained by PCR amplification; made in house; host or cells: Escherichia coli BL21 (DE3) or NiCo21 (DE3)
T1 sequence (O60664 1-434 S24A/S93A): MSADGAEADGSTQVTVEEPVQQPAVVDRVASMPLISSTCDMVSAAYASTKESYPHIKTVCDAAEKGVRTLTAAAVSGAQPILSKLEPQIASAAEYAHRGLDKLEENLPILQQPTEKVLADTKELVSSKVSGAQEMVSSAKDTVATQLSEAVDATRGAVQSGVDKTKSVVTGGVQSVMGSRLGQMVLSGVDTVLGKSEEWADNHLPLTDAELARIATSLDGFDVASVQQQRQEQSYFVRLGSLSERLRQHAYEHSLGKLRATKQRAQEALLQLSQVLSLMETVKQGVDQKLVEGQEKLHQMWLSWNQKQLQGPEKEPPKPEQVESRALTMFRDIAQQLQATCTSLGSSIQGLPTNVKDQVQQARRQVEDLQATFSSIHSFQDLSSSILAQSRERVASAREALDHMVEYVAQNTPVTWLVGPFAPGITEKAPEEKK
Text: (§1) To validate this predicted mode of DAG binding by the PAT domain, we generated mutant versions of PLIN3 and assessed their impact on DAG binding by MST. First, we tested whether the simultaneous substitution of the five residues, Q22, S24, E86A, I89G, and S93A, would impact either binding of short chain DAG or that of liposomes containing low concentrations of DAG. […] To assess the impact of these residues in more detail, we first tested mutations in the two serine residues S24A and S93A. […] To confirm the importance of the glutamic acid residue at position 86 for binding of DAG, we also generated an E86A point mutant version.
(§2) Binding of purified PLIN3 protein and PLIN3 domains to liposomes, ALDs, or short chain lipids was determined by MST using a Monolith NT.115 system (Nanotemper Technologies). Proteins were labeled with a RED-tris-NTA His tag protein-labeling reagent following the manufacturer’s instructions (Nanotemper Technologies). Labeled proteins were added to a serial dilution of unlabeled lipids, liposomes, or ALDs, and the mixtures were loaded into MST standard capillaries to assess binding affinities. The dissociation constant was obtained by plotting fluorescence intensities of the protein–lipid complex against the concentrations of the unlabeled lipids, liposomes, or ALDs. […]

PLIN3 = molecular target: T2, PLIN3 (Homo sapiens, UniProt O60664); test: Microscale thermophoresis (MST) binding of lipids, liposomes or ALDs to full-length WT PLIN3; settings: for fold increase of PLIN3 binding versus unspiked DOPC/DOPE liposomes: DOPC/DOPE (80/20 mol%) liposomes, DAG 5 mol%, DOPA 10 mol%
T2 construct: Plasmids containing human full-length PLIN3 or fragments thereof were obtained by PCR amplification; made in house; host or cells: Escherichia coli BL21 (DE3) or NiCo21 (DE3)
T2 sequence (O60664 1-434): T1 sequence (O60664 1-434 S24A/S93A) with A24S, A93S
Text: To corroborate these findings, we analyzed binding of PLIN3 to liposomes using microscale thermophoresis (MST), an immobilization-free technology for measuring biomolecular interactions based on the diffusion of a fluorescently labeled protein along a microscopic temperature gradient. In this assay, the free protein diffuses faster than the one which has bound to a ligand. Ligands can range from small ions to low molecular weight compounds, liposomes, or even viruses ([24], [25], [26], [27], [28]). Variations in fluorescence intensity are then plotted against the ligand concentrations to determine a binding affinity. […] To determine the optimal DAG concentrations for PLIN3 binding, we varied the DAG concentrations in the ER-liposomes between 0 to 20 mol%.
(§3) Binding of purified PLIN3 protein and PLIN3 domains to liposomes, ALDs, or short chain lipids was determined by MST using a Monolith NT.115 system (Nanotemper Technologies). Proteins were labeled with a RED-tris-NTA His tag protein-labeling reagent following the manufacturer’s instructions (Nanotemper Technologies). Labeled proteins were added to a serial dilution of unlabeled lipids, liposomes, or ALDs, and the mixtures were loaded into MST standard capillaries to assess binding affinities. The dissociation constant was obtained by plotting fluorescence intensities of the protein–lipid complex against the concentrations of the unlabeled lipids, liposomes, or ALDs. Experiments were performed in triplicates and data were fitted using the KD Model of the MO.Affinity Analysis software (https://nanotempertech.com/, Nanotemper Technologies).

PLIN3 - E86A I89G S93A = molecular target: T3, PLIN3 - E86A I89G S93A (Homo sapiens, UniProt O60664, E86A/I89G/S93A); test: MST binding to the PLIN3 triple mutant; settings: short chain lipid as free ligand; n.d. = not detected; Fig. 4C
T3 construct: Plasmids containing human full-length PLIN3 or fragments thereof were obtained by PCR amplification; made in house; host or cells: Escherichia coli BL21 (DE3) or NiCo21 (DE3)
T3 sequence (O60664 1-434 E86A/I89G/S93A): T1 sequence (O60664 1-434 S24A/S93A) with A24S, E86A, I89G
Text: as §1, §2

4-helix bundle of PLIN3 = molecular target: T4, 4-helix bundle of PLIN3 (Homo sapiens, UniProt O60664); test: MST binding to the 4-helix bundle of PLIN3
T4 sequence (O60664 245-434 limits assumed): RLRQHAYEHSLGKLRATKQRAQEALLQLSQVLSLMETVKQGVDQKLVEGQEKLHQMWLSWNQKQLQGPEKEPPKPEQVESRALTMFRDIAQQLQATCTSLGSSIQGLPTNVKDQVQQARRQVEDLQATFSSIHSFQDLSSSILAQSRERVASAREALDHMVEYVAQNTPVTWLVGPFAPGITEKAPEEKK
Text: (§4) To gain further insight into the binding of PLIN3 to DAG-containing membranes, we examined the contribution of each individual domain of PLIN3 towards lipid binding, that is, the N-terminal PAT domain, the central 11-mer repeat region, and the C-terminally located 4-helix bundle (Fig. 2A). Therefore, we expressed and purified proteins harboring individual domains of PLIN3 and first examined their binding of short-chain lipids.
as §3

PLIN3 - E86A = molecular target: T5, PLIN3 - E86A (Homo sapiens, UniProt O60664, E86A); test: MST binding to the PLIN3 point mutant; settings: short chain lipid as free ligand
T5 construct: Plasmids containing human full-length PLIN3 or fragments thereof were obtained by PCR amplification; made in house; host or cells: Escherichia coli BL21 (DE3) or NiCo21 (DE3)
T5 sequence (O60664 1-434 E86A): T1 sequence (O60664 1-434 S24A/S93A) with A24S, E86A, A93S
Text: as §1, §2

[1] = molecular target: T6, PLIN3 - Q22A S24A E86A I89G S93A (Homo sapiens, UniProt O60664, E86A/I89G/Q22A/S24A/S93A); test: MST binding to the PLIN3 quintuple mutant; settings: short chain lipid as free ligand; n.d.; Fig. S1
T6 construct: Plasmids containing human full-length PLIN3 or fragments thereof were obtained by PCR amplification; made in house; host or cells: Escherichia coli BL21 (DE3) or NiCo21 (DE3)
T6 sequence (O60664 1-434 Q22A/S24A/E86A/I89G/S93A): T1 sequence (O60664 1-434 S24A/S93A) with Q22A, E86A, I89G
Text: as §1, §2

PAT domain of PLIN3 = molecular target: T7, PAT domain of PLIN3 (Homo sapiens, UniProt O60664); test: MST binding to the PAT domain of PLIN3; settings: short chain lipids as free ligands; for Kd: n.d. = not detected, Fig. 2B
T7 sequence (O60664 1-107 limits assumed): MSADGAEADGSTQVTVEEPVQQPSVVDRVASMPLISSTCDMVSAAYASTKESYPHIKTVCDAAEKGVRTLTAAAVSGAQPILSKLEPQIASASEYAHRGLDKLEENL
Text: as §4, §3

[2] = molecular target: T8, 11-mer repeat region of PLIN3 (Homo sapiens, UniProt O60664); test: MST binding to the 11-mer repeat region of PLIN3; settings: short chain lipids as free ligands; n.d. = not detected; Fig. 2B
T8 sequence (O60664 115-179 limits assumed): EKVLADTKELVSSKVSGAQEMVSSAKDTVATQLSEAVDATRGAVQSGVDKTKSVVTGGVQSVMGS
Text: as §4, §3

His-tagged human PLIN3 = molecular target: T9, His-tagged human PLIN3 (Homo sapiens, UniProt O60664); test: Liposome flotation assay on a sucrose gradient, PLIN3 detected by Western blotting; format: binding; settings: ER-liposomes containing 16:0 DAG at 5 mol%; top layer of sucrose gradient
T9 construct: Plasmids containing human full-length PLIN3 or fragments thereof were obtained by PCR amplification; made in house; host or cells: Escherichia coli BL21 (DE3) or NiCo21 (DE3)
T9 sequence (O60664 1-434): T1 sequence (O60664 1-434 S24A/S93A) with A24S, A93S
Procedure: To examine the interaction between soluble PLIN3 and membranes containing DAG, we first performed liposome-binding assays. Therefore, purified His-tagged human PLIN3 was incubated with liposomes prepared from a phospholipid mixture that mimics the composition of the ER membrane (DOPC/DOPE/DOPS/DOPA/SoyPI, 53/23/8/5/11 mol%; hereafter termed ER-liposomes) lacking or containing low concentrations of DAG (16:0 DAG; 5 mol%). Liposomes were then floated on a sucrose gradient, and PLIN3 binding was monitored by Western blotting.
Purified PLIN3 was incubated with liposomes for 1 h at RT and then gently mixed with an equal volume of 60% (w/v) sucrose solution in liposome buffer to obtain a final sucrose concentration of 30%. This mixture was overlaid with two volumes of 20% sucrose solution, two volumes of 10% sucrose solution, and one volume of liposome buffer. The samples were centrifuged at 177,000g for 1 h at 20 °C. Four fractions were collected from the top of the gradient and the distribution of PLIN3 was analyzed by Western blotting. Signal intensities were quantified using ImageJ (https://imagej.net/ij/) software.

[3] = short chain lipid as free ligand, Fig. 1I, Fig. 4C, read-out: KD
[4] = ER-liposomes supplemented with the named DAG at 5 mol%, KD against liposome concentration, Fig. 1C, read-out: KD

Structure (SMILES): CCCCCCCC(=O)OC[C@H](CO)OC(=O)CCCCCCC [8:0 DAG, 1,2-dioctanoyl-sn-glycerol]
- fold decreased affinity versus WT PLIN3 (PLIN3 - S24A S93A): 20.9 fold
- Kd (PLIN3 - S24A S93A; Fig. S1): 2.09 µM
- Kd (PLIN3; [3]): 0.1 µM
- KD (PLIN3 - E86A I89G S93A): failed to bind
- Kd (4-helix bundle of PLIN3; short chain lipids as free ligands, n.d. = not detected, Fig. 2B, read-out: KD 4-helix): 20.7 µM
- fold less efficient binding than WT PLIN3 (PLIN3 - E86A): 873 fold
- Kd (PLIN3 - E86A; Fig. 4C): 87.3 µM
- KD [1]: failed to bind
- fold stronger binding than 8:0 PA (PAT domain of PLIN3): 36 fold
- Kd (PAT domain of PLIN3): 0.39 µM

Structure (SMILES): CC(C)CCC[C@@H](C)[C@H]1CC[C@H]2[C@@H]3CC=C4C[C@@H](O)CC[C@]4(C)[C@H]3CC[C@]12C [cholesterol]
- Kd (PLIN3; ER-liposomes supplemented with 20 mol% cholesterol, Fig. 1E, read-out: KD): 64.9 µM

Structure (SMILES): CCCCCCCC(=O)OC[C@H](COP(=O)(O)OC[C@H](N)C(=O)O)OC(=O)CCCCCCC [8:0 PS, 1,2-dioctanoyl-sn-glycero-3-phospho-L-serine sodium salt]
- Kd [2]: 471 ± 53.8 µM
- Kd (PAT domain of PLIN3): 106 ± 30.5 µM

Structure (SMILES): CCCCCCCC(=O)OC[C@H](COP(=O)(O)O)OC(=O)CCCCCCC [8:0 PA, 1,2-dioctanoyl-sn-glycero-3-phosphate sodium salt]
- Kd (PAT domain of PLIN3): 14.1 µM

Structure (SMILES): CCCCCCCC(=O)OCC(COC(=O)CCCCCCC)OC(=O)CCCCCCC [8:0 TAG, 1,2,3-trioctanoylglycerol]
- Kd (PLIN3; [3]): 0.27 µM
- Kd (PAT domain of PLIN3): 17.3 µM

Structure (SMILES): CCCCCCCC/C=C\CCCCCCCC(=O)OC[C@H](COP(=O)(O)O)OC(=O)CCCCCCC/C=C\CCCCCCCC [18:1 PA, 1,2-dioleoyl-sn-glycero-3-phosphate]
- fold increase of PLIN3 binding versus unspiked DOPC/DOPE liposomes (PLIN3): 9 fold
- Kd (PLIN3; PC/PE liposomes (DOPC/DOPE; 80/20 mol%) spiked with the named lipid at 10 mol%, n.d. = not detected, Fig. 1H, read-out: KD): 58.1 µM

Structure (SMILES): CCCCCCCC/C=C\CCCCCCCC(=O)OC[C@H](CO)OC(=O)CCCCCCC/C=C\CCCCCCCC [18:1 DAG, 1,2-dioleoyl-sn-glycerol]
- Kd (PLIN3; [4]): 60.1 µM

Structure (SMILES): CCCCCCCCCCCCCCCC(=O)OC[C@H](CO)OC(=O)CCCCCCCCCCCCCCC [16:0 DAG, 1,2-dipalmitoyl-sn-glycerol]
- fold increase of PLIN3 binding versus unspiked DOPC/DOPE liposomes (PLIN3): 36 fold
- fold lower dissociation constant than ER-liposomes lacking DAG (PLIN3; ER-liposomes containing 16:0 DAG at 5 mol%): 29 fold
- Kd (PLIN3; [4]): 20.6 µM
- Kd (PLIN3; PC/PE liposomes (DOPC/DOPE; 80/20 mol%) spiked with 16:0 DAG at 5 mol%, Fig. 1H, read-out: KD): 15 µM
- fraction of PLIN3 recovered from liposomes (His-tagged human PLIN3): 13.9%

Structure (SMILES): CCCCCCC(=O)OC[C@H](COP(=O)([O-])OCC[N+](C)(C)C)OC(=O)CCCCCC [7:0 PC, 1,2-diheptanoyl-sn-glycero-3-phosphocholine]
- Kd (PLIN3): 214 ± 71 µM
- Kd (4-helix bundle of PLIN3): 88.5 ± 28.8 µM
